The values below come from patent US20230276803A1, “A PESTICIDALLY ACTIVE MIXTURE COMPRISING THIETANYLOXY COMPOUND, OXIDES OR SALTS THEREOF” (PI INDUSTRIES LTD., priority 2020, published 2023).

What all share (assay type): in vivo
One test relates to Spodoptera litura. The test can be described thus: Diet incorporation method against Spodoptera litura (Example B). Conditions: 96 h; for pest or weed control at 10 ppm: read-out: Observed Efficacy (%), 10 ppm. From the text:
(§1) In which E represents the expected percentage of inhibition of the pests for the combination of two insecticides or one insecticide and one fungicide at defined doses (for example equal to x and y respectively), x is the percentage of inhibition observed for the pest/disease by the compound (1) at a given dose (equal to x), y is the percentage of inhibition observed for the pest/disease by the compound (2) or (3) at a defined dose (equal to y). When the percentage of inhibition observed for the combination is greater than E, there is a synergistic effect.
The diet incorporation method was used, in which semi-synthetic diet was incorporated into the test solution consisting either of the single compound or respective compound combinations, when the temperature was approximately 50° C. in the bioassay containers, then stirred thoroughly for proper mixing and allowed to cool for 30 min. The solidified diet was cut into equal pieces, and then each piece was transferred into one cell of the bio-assay trays. A single starved third instar larva was released into each of these cells of the bio-assay trays and the tray was covered with a lid. The bio-assay trays were kept under laboratory conditions at a temperature of 25° C. and relative humidity of 70%. Observations on dead, moribund and live larvae were recorded 96 h after the release. Percent mortality was calculated by combining dead and moribund larvae and comparing the result with the one of the untreated control. The results are shown for the compound of formula (I-1) in Table B.

For the next test, the system named is Plutella xylostella. The experiment in a line: Leaf dip method (cabbage) against Plutella xylostella (Example C). Conditions: 72 h.
From the text: as §1
The leaf dip method was used, wherein the required quantity of the compound or respective compound combinations were weighed and dissolved in a test solution prepared in tubes. The tubes were put on a vortex at 2000 rpm for 90 min for proper mixing and then diluted with a 0.01% Triton-X solution to the desired test concentration. Cabbage leaves were dipped into the solution for 10 seconds, shade dried for 20 min and then transferred to single cells of bioassay trays. A single second instar larva was released into each cell and the tray was covered with a lid. The bio-assay trays were kept under laboratory conditions at a temperature of 25° C. and relative humidity of 70%. Observations on dead, moribund and live larvae were recorded 72 h after the release. Percent mortality was calculated by combining dead and moribund larvae and comparing the result with the one of the untreated control. The results are shown for compound of formula (I-1) in Table C.

The next test concerns Helicoverpa armigera. The experiment in a line: Diet incorporation method against Helicoverpa armigera (Example A). Particulars: 96 h.
From the text: as §1
The diet incorporation method was used, in which semi-synthetic diet was incorporated into the test solutions consisting either of the single compounds or respective compound combinations, when the temperature was approximately 50° C. in the bio-assay containers, then stirred thoroughly for proper mixing and allowed to cool for 30 min. The solidified diet was cut into equal pieces, and then each piece was transferred into one cell of a bio-assay tray. A single starved third instar larva was released into each of these cells of the bio-assay trays and the tray was covered with a lid. The bio-assay trays were kept under laboratory conditions at a temperature of 25° C. and relative humidity of 70%. Observations on dead, moribund and live larvae were recorded 96 h after the release of the larvae. Percent mortality was calculated by combining dead and moribund larvae and comparing the result to the one of the untreated control. The results are shown for the compound of formula (I-1) in Table A.

For the next test, the system named is Phakopsora pachyrhizi. The experiment in a line: Preventive glasshouse test against Phakopsora pachyrhizi in soybean (Example H). Conditions: preventive spray.
From the text: as §1
The single compounds or the respective compound combinations were dissolved in 2% dimethyl sulfoxide/acetone and then mixed with water containing an emulsifier to a calibrated spray volume of 50 ml. The test solutions were poured into spray bottles for further applications.
To test the preventive activity of compounds, healthy young Soybean plants, raised in the greenhouse, were sprayed with the active compound preparation at the stated application rates inside the spray cabinets using hollow cone nozzles. One day after treatment, the plants were inoculated with a suspension containing 2×10^5 Phakopsora pachyrhizi conidia. The inoculated plants were then kept in a greenhouse chamber at a temperature of 22-24° C. and 80-90% relative humidity for disease expression.
A visual assessment of the performance of the single compounds and respective compound combinations was carried out by rating the disease severity (0-100% scale) on treated plants 3, 7, 10 and 15 days after application. Efficacy (% control) of the compounds was calculated by comparing the disease rating in the treatment with the one of the untreated control. The compounds were also assessed for their plant compatibility by recording symptoms like necrosis, chlorosis and stunting. The results have been described for the compound of formula (I-1) in Table H.

The test system of a further test is Alternaria solani. The experiment in a line: Preventive glasshouse test against Alternaria solani in tomato (Example G). Conditions: 100 ppm, preventive spray.
From the text: as §1
(§2) The single compounds or respective compound combinations were dissolved in 2% dimethyl sulfoxide/acetone and then mixed with water containing emulsifier to a calibrated spray volume of 50 mL. The test solutions were poured into spray bottles for further applications.
To test the preventive activity, healthy young tomato plants, raised in the greenhouse, were sprayed with the active compound preparation at the stated application rates inside the spray cabinets using hollow cone nozzles. One day after treatment, the plants were inoculated with a spore suspension containing 0.24×10^6 Alternaria solani inoculum and 2% Malt. The inoculated plants were then kept in a greenhouse chamber at a temperature of 22-24° C. and 90-95% relative humidity for disease expression.
A visual assessment of the performance of the single compounds or compound combinations was carried out by rating the disease severity (0-100% scale) on treated plants 3, 7, 10 and 15 days after application. Efficacy (% control) of the single compounds and mixtures was calculated by comparing the disease rating in the treatment with the one of the untreated control. The compounds were also assessed for their plant compatibility by recording symptoms like necrosis, chlorosis and stunting. The results have been described for the compound of formula (I-1) in Table G.

The next test deals with Erysiphe cichoracearum. The experiment in a line: Preventive glasshouse test against Erysiphe cichoracearum in cucumber (Example K). Conditions: 50 ppm, preventive spray.
From the text: as §1
The single compounds or the respective compound combinations were dissolved in 2% dimethyl sulfoxide/acetone and then mixed with water containing emulsifier to a calibrated spray volume of 50 mL. The test solutions were poured into spray bottles for further applications. […]
A visual assessment of the performance of the compounds and the respective compound combinations was carried out by rating the disease severity (0-100% scale) on treated plants 3, 7, 10 and 15 days after application. Efficacy (% control) of the single compounds or compound combinations was calculated by comparing the disease rating in the treatment with the one of the untreated control. The compounds were also assessed for their plant compatibility by recording symptoms like necrosis, chlorosis and stunting. […]

In test [1] the test system is Parastagonospora nodorum/Septoria nodorum/Stagnospora nodorum. The test can be described thus: Preventive glasshouse test against Septoria nodorum in wheat (Example J). Particulars: preventive spray.
From the text: as §1, §2
[…] One day after treatment, the plants were inoculated with a spore suspension containing 2.8×10^6 Stagnospora nodorum inoculum.
The inoculated plants were then kept in a greenhouse chamber at 22-25° C. temperature and 90-100% relative humidity for disease expression.
A visual assessment of the performance of the single compounds or compound combinations was carried out by rating the disease severity (0-100% scale) on treated plants 3, 7, 10 and 15 days after application. Efficacy (% control) of the single compounds and mixtures was calculated by comparing the disease rating in the treatment with the one of the untreated control. The compounds were also assessed for their plant compatibility by recording symptoms like necrosis, chlorosis and stunting. The results have been described for the compound of formula (I-1) in Table J.

Where [2] appears, read: Plutella xylostella, foliar, read-out: Observed Efficacy (%).
[3] abbreviates: Helicoverpa armigera, read-out: Observed Efficacy (%).

Like-named read-outs stand apart in the source and are kept apart here.

Take `CN/C(=N\[N+](=O)[O-])NCc1cnc(Cl)s1` [Clothianidin, clothianidin]: the pest or weed control at 10 ppm with Spodoptera litura is 0%. Besides, the pest or weed control at 0.1 ppm with Plutella xylostella (setting [2]) turned out to be 0%.

As to `Cc1c(COC(=O)[C@@H]2[C@H](/C=C(\Cl)C(F)(F)F)C2(C)C)cccc1-c1ccccc1` (racemic) [Bifenthrin, bifenthrin], the pest or weed control at 20 ppm in the test on Helicoverpa armigera (Helicoverpa armigera, 20 ppm, read-out: Observed Efficacy (%)) amounted to 75%. The pest or weed control at 10 ppm in the test on Spodoptera litura was determined as 12.5%. Moreover, in the test on Plutella xylostella (setting [2]), the pest or weed control at 1 ppm is 25%.

As to `C=CCOC1=NS(=O)(=O)c2ccccc21` [Probenazole, probenazole], in the test on Helicoverpa armigera (setting [3]), the pest or weed control at 200 ppm was 12.5%.

With `CC(COc1ccc(Oc2ccccc2)cc1)Oc1ccccn1` (stereo not shown) [Pyriproxyfen], the pest or weed control at 0.05 ppm in the test on Plutella xylostella (setting [2]) came out at 12.5%.

As to `Cn1cc(C(=O)Nc2ccccc2-c2cc(F)c(F)c(F)c2)c(C(F)F)n1` [Fluxapyroxad, fluxapyroxad], the “Observed Efficacy (%)” value in the test with Phakopsora pachyrhizi (0.05 ppm) amounted to 41%.

In the case of `CON=CNC(=O)c1ccc(C2=NOC(c3cc(Cl)cc(Cl)c3)(C(F)(F)F)C2)cc1C` (stereo not shown) [Fluxametamide, fluxametamide], the “Observed Efficacy (%)” value in the test on Helicoverpa armigera (0.13 ppm) and in the test with Helicoverpa armigera (0.28 ppm) was 12.5% each time.

Take `COCC(=O)N(c1c(C)cccc1C)C(C)C(=O)OC` (stereo not shown) [Metalaxyl, metalaxyl]: in the test on Spodoptera litura (read-out: Observed Efficacy (%), 100 ppm), the pest or weed control at 100 ppm amounted to 0%. Moreover, in the test with Alternaria solani, the “Observed Efficacy (%)” value was 17%.

Take `O=[N+]([O-])NC1=NCCN1Cc1ccc(Cl)nc1` [Imidacloprid, imidacloprid]: the pest or weed control at 50 ppm in the test with Spodoptera litura (read-out: Observed Efficacy (%), 50 ppm) came out at 25%. Moreover, in the test on Plutella xylostella (setting [2]), the pest or weed control at 0.1 ppm amounted to 0%.

With `COC(=O)N(OC)c1ccccc1COc1ccn(-c2ccc(Cl)cc2)n1` [Pyraclostrobin, pyraclostrobin], the pest or weed control at 200 ppm turned out to be 0% in the test on Helicoverpa armigera (setting [3]) and 0% in the test with Spodoptera litura (read-out: Observed Efficacy (%), 200 ppm). Further, the pest or weed control at 500 ppm with Helicoverpa armigera (Helicoverpa armigera, 500 ppm, read-out: Observed Efficacy (%)) amounted to 0%; in the test with Spodoptera litura (read-out: Observed Efficacy (%), 500 ppm), 0%.

Consider `N#Cc1nn(-c2c(Cl)cc(C(F)(F)F)cc2Cl)c(N)c1[S+]([O-])C(F)(F)F` (stereo not shown) [Fipronil, fipronil], for which the pest or weed control at 0.005 ppm with Plutella xylostella (Plutella xylostella, foliar, 0.005 ppm, read-out: Observed Efficacy (%)) stood at 50%.

For `CN1COCN(Cc2cnc(Cl)s2)/C1=N\[N+](=O)[O-]` [Thiamethoxam, thiamethoxam], the pest or weed control at 1 ppm in the test with Plutella xylostella (setting [2]) turned out to be 12.5%.

`N#Cc1ccc(CC(=NNC(=O)Nc2ccc(OC(F)(F)F)cc2)c2cccc(C(F)(F)F)c2)cc1` (mixture of isomers) [Metaflumizone, metaflumizone]: in the test with Plutella xylostella (0.001 ppm), the “Observed Efficacy (%)” value was determined as 12.5%.

As for `N#Cc1c[nH]cc1-c1cccc2c1OC(F)(F)O2` [Fludioxonil, fludioxonil], the pest or weed control at 100 ppm with Helicoverpa armigera (Helicoverpa armigera, 100 ppm, read-out: Observed Efficacy (%)) came to 0%.

As for `CCS(=O)(=O)c1cccnc1-c1nc2cc(S(=O)(=O)C(F)(F)F)ccc2o1` [Oxazosulfyl, 2-[3-(ethanesulfonyl)pyridin-2-yl]-5-[trifluoro(methanesulfonyl)]-1,3-benzoxazole], the pest or weed control at 100 ppm with Spodoptera litura (100 ppm, read-out: Observed Efficacy (%)) was 0%. Besides, the pest or weed control at 0.1 ppm with Plutella xylostella (setting [2]) is 0%.

On to `CC1=NNC(=O)N(/N=C/c2cccnc2)C1` [Pymetrozine, pymetrozine], for which, in the test with Plutella xylostella (Plutella xylostella, foliar, 0.01 ppm, read-out: Observed Efficacy (%)), the pest or weed control at 0.01 ppm was 0%. The pest or weed control at 0.05 ppm in the test with Plutella xylostella (setting [2]) was found to be 0%.

With `CCN(C(=O)CCSCCC(F)(F)F)c1cn(-c2cccnc2)nc1Cl` [Tyclopyrazoflor], the “Observed Efficacy (%)” value in the test on Helicoverpa armigera (100 ppm) came to 12.5%.

`COC(=O)NC(=S)Nc1ccccc1NC(=S)NC(=O)OC` [Thiophanate-methyl, thiophanate-methyl]: the “Observed Efficacy (%)” value in the test with Erysiphe cichoracearum was 29%.

In the case of `CCc1nc2cc(C)c(Oc3ccc(OC(F)(F)F)cc3)cc2c(OC(=O)OC)c1C` [Flometoquin, flometoquin], the “Observed Efficacy (%)” value with Plutella xylostella (0.001 ppm) came to 0%; in the test with Plutella xylostella (0.005 ppm) it was 62.5%.

Consider `FC(F)(F)c1ccc(OCCCOc2c(Cl)cc(OCC=C(Cl)Cl)cc2Cl)nc1` [Pyridalyl, pyridalyl], for which the pest or weed control at 0.002 ppm in the test on Plutella xylostella (Plutella xylostella, foliar, 0.002 ppm, read-out: Observed Efficacy (%)) was determined as 50%.

For `CO/C=C(/C(=O)OC)c1ccccc1Oc1cc(Oc2ccccc2C#N)ncn1` [Azoxystrobin, azoxystrobin], the “Observed Efficacy (%)” value came to 39% in the test with Phakopsora pachyrhizi (0.1 ppm), 12% in test [1] (0.05 ppm) and 24% in test [1] (0.1 ppm).

Take spinetoram: the “Observed Efficacy (%)” value with Helicoverpa armigera (2.5 ppm) is 87.5%.

Regarding `CCOCn1c(-c2ccc(Cl)cc2)c(C#N)c(Br)c1C(F)(F)F` [Chlorfenapyr, chlorfenapyr], the pest or weed control at 0.15 ppm with Plutella xylostella (Plutella xylostella, foliar, 0.15 ppm, read-out: Observed Efficacy (%)) came to 62.5%. Also, in the test with Plutella xylostella (Plutella xylostella, foliar, 0.2 ppm, read-out: Observed Efficacy (%)), the pest or weed control at 0.2 ppm was found to be 75%.
